Consider 25 compounds from patent publication US9527830B2 (Merck Sharp & Dohme Corp., priority 2011, dated 2016).

The experiment has as its target T1, hROMK1 (Kir1.1) (Homo sapiens, UniProt P48048).
T1 construct: expressed in transfected cells
T1 sequence (P48048 1-391): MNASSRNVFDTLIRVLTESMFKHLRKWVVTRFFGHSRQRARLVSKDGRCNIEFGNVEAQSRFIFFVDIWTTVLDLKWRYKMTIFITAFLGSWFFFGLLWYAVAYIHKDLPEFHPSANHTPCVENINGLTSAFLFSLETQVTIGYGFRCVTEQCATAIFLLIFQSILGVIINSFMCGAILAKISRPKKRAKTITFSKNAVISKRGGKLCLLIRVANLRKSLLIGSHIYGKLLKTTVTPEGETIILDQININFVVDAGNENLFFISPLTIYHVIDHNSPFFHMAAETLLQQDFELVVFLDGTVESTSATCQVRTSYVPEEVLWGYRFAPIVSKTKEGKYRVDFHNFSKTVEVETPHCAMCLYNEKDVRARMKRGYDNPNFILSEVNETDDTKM
As to the kind of experiment: ^86Rb^+ Efflux Assay. Format: cell-based. As to conditions: CHO-DHFR- cells stably expressing hROMK1; potency ranges. The method, then:
Several assays may be used to measure functional inhibition of the ROMK channel by compounds of the instant invention. One primary assay that can be used is a functional ^86Rb^+ efflux assay that measures the ability of ROMK to permeate ^86Rb^+, in the absence or presence of test compound. Under control conditions, cells loaded with ^86Rb^+ and incubated in Rb^+-free medium display a time-dependent efflux of the isotope, the rate of which depends on number of functional channels. When cells are incubated in the presence of a channel inhibitor, efflux of ^86Rb^+ is prevented in a concentration-dependent manner, and IC50 values of inhibition by compounds can be accurately determined. This assay has been established with cell lines expressing either human, rat or dog ROMK channels, and can operate in 96- or 384-well format. Importantly, the human, rat, and dog ^86Rb^+ efflux assays can be carried out in the presence of up to 100% serum allowing, therefore, an accurate estimation of the effect of protein binding on the inhibitory activity of compounds of interest. Another ROMK functional assay makes use of the ability of thallium to permeate through open ROMK channels and increase the fluorescence of a dye previously loaded into the cells. Under control conditions, cells loaded with dye and exposed to thallium-containing medium display a time-dependent increase in fluorescence, the rate of which depends on number of functional channels. When cells are incubated in the presence of a channel inhibitor, the increase in fluorescence is attenuated in a concentration-dependent manner, and IC50 values of inhibition by compounds can be accurately determined. This assay has been established with cell lines expressing either human, or rat ROMK channels, and operates in 384-well format. Another assay for evaluation of the compounds of the instant invention and for evaluation of mechanism of action of compounds of Formula I relies on the measurement of the electrical current that is generated as potassium permeates through the channel. For these electrophysiological experiments, three different platforms, IonWorks, QPatch, or manual patch clamp, are used, depending on the experimental protocol under consideration. IonWorks operates in a 384-well format and allows accurate determination of IC50 values for inhibitors.
CHO-DHFR-cells stably expressing hROMK1 (Kir1.1) were grown at 37° C. in a 10% CO2 humidified incubator in Iscove's Modified Dulbecco's Medium (Gibco 12440) supplemented with HT Supplement, Penicillin/Streptomycin/Glutamine, G418 (500 μg/ml) and 10% FBS. Cells were seeded in Sterile and Tissue Culture Treated Packard CulturPlate White Opaque Microplates at a concentration of 5.0E5-7.0E5 cells/ml—PerkinElmer 6005680 (96-well); Corning 3707 (384 well) in complete media containing 1.5 μCi/ml Rubidium-86. Cells were incubated in 37° C.-10% CO2 incubator overnight. On the day of the experiment, the media was removed and cells washed with low K assay buffer. ^86Rb^+ efflux was initiated after addition of assay buffer±test compound followed by 35 min incubation at room temperature. ROMK-sensitive component of efflux was defined in the presence of 10 mM BaCl2. Assay buffer was removed and transferred to a plate and cells were solubilized in the presence of SDS. Radioactivity associated with assay and cell plate was determined.
• 1. Removed cell media and washed cells with low K assay buffer (126.9 mM NaCl, 4.6 mM KCl, 2 mM CaCl2, 1 mM MgCl2, 10 mM Hepes/NaOH; pH 7.4) • 200 μl for 96-well plate; 70 μl for 384-well plate • 2. Added assay buffer (121.5 mM NaCl, 10 mM KCl, 2 mM CaCl2, 1 mM MgCl2, 10 mM Hepes/NaOH; pH 7.4)±test compound to cells • 100 μl for 96-well plate; 50 μl for 384-well plate • 3. Incubated at ambient temperature (22-24° C.) for 35 min • 4.
What is called IC50 is the concentration that gives 50% inhibition. Read a low IC50 as inhibition by little substance. Turning to `COc1cc(CC(=O)N2CCC(/C=C/c3ccc4c(c3)COC4=O)CC2)ccc1C#N` [Example 52, 2-Methoxy-4-(2-oxo-2-(4-[(E)-2-(1-oxo-1,3-dihydro-2-benzofuran-5-yl)ethenyl]piperidin-1-yl}ethyl]benzonitrile], the IC50 is at most 500 nM.

In the case of `COc1cc(CC(=O)N2CCC(CCc3ccc4c(c3)CCOC4=O)CC2)c(F)cc1C#N` [Example 67, 5-Fluoro-2-methoxy-4-(2-oxo-2-{4-[2-(1-oxo-3,4-dihydro-1H-isochromen-6-yl)ethyl]piperidin-1-yl}ethyl)benzonitrile], the half-inhibitory concentration (IC50) is at most 500 nM.

Compound `O=[N+]([O-])c1ccc(CCC2CCN(CCc3ccc([N+](=O)[O-])cc3)CC2)cc1` [Example 3, 1,4-bis[2-(4-Nitrophenyl)ethyl]piperidine] returned a half-maximal inhibitory concentration (IC50) of at most 200 nM.

The compound `O=C1OCc2c1ccc(CCC1CCN(C(=O)Cc3ccc(-n4cnnn4)cc3)CC1)c2Br` [Example 59, 4-Bromo-5-[2-(1-{[4-(1H-tetrazol-1-yl)phenyl]acetyl}piperidin-4-yl)ethyl]-2-benzofuran-1(3H)-one] had a concentration for half-maximal inhibition (IC50) of at most 200 nM.

Compound `O=C1OCc2cc(/C=C/C3CCN(C(=O)Cc4ccc(-n5cnnn5)cc4)CC3)ccc21` [Example 6] returned an IC50 of at most 200 nM.

On to `CC1Cc2cc(CCC3CCN(C(=O)Cc4ccc(-n5cnnn5)cc4)CC3)ccc2C(=O)O1` (stereo not shown) [Example 80, 3-Methyl-6-[2-(1-{[4-(1H-tetrazol-1-yl)phenyl]acetyl}piperidin-4-yl)ethyl]-3,4-dihydro-1H-isochromen-1-one], for which the concentration for half-maximal inhibition (IC50) is at most 200 nM.

With `N#Cc1ccc(/C=C/C2CCN(CCc3ccc4c(c3)COC4=O)CC2)cc1` [Example 84, 4-[(E)-2-{1-[2-(1-Oxo-1,3-dihydro-2-benzofuran-5-yl)ethyl]piperidin-4-yl}ethenyl]benzonitrile], the IC50 is at most 500 nM.

In turn, `O=C(Cc1ccc(-n2cnnn2)cc1)N1CCC(Sc2ccc([N+](=O)[O-])cc2)CC1` [Example 12, 1-{4-[(4-Nitrophenyl)sulfanyl]piperidin-1-yl}-2-[4-(1H-tetrazol-1-yl)phenyl]ethanone] yielded an IC50 of at most 200 nM.

Turning to `N#Cc1cc(CCC2(O)CCN(CCc3ccc4c(c3)COC4=O)CC2)ccc1F` [Example 30, 2-Fluoro-5-(2-{4-hydroxy-1-[2-(1-oxo-1,3-dihydro-2-benzofuran-5-yl)ethyl]piperidin-4-yl}ethyl)benzonitrile], the half-maximal inhibitory concentration (IC50) was at most 200 nM.

In turn, `N#Cc1cc(CCC2(O)CCN(C(=O)Cc3ccc(-n4cnnn4)cc3)CC2)ccc1F` [Example 13, 2-Fluoro-5-[2-(4-hydroxy-1-{[4-(1H-tetrazol-1-yl)phenyl]acetyl}piperidin-4-yl)ethyl]benzonitrile] gave a half-inhibitory concentration (IC50) of at most 500 nM.

`N#Cc1cc(CCC2(O)CCN(C(=O)Cc3ccc(-n4cnnn4)cc3C(F)(F)F)CC2)ccc1F` [Example 31, 2-Fluoro-5-[2-(4-hydroxy-1-{[4-(1H-tetrazol-1-yl)-2-(trifluoromethyl)phenyl]acetyl}piperidin-4-yl)ethyl]benzonitrile] had an IC50 of at most 500 nM.

`O=C1OCc2cc(CCC3CCN(C(=O)Cc4ccc5c(c4)COC5=O)CC3)ccc21` [Example 50, 5-(2-{1-[(1-Oxo-1,3-dihydro-2-benzofuran-5-yl)acetyl]piperidin-4-yl}ethyl)-2-benzofuran-1(3H)-one] returned an IC50 of at most 500 nM.

`O=C1OCCc2cc(CCC3CCN(C(=O)C4CCc5cc(-n6cnnn6)ccc54)CC3)ccc21` (stereo not shown) [Example 66]: the half-maximal inhibitory concentration (IC50) is at most 200 nM.

Consider `O=C1OCc2cc(CCC3CCN(C(=O)C4CCc5cc(-n6cnnn6)ccc54)CC3)ccc21` (stereo not shown) [Example 72, 5-[2(1-{[5(1H-Tetrazol-1-yl)-2,3-dihydro-1H-inden-yl]carbonyl}piperidin-4-yl)ethyl]-2-benzofuran-1(3H)-one], for which the half-inhibitory concentration (IC50) was at most 200 nM.

Take `O=C1OCc2cc(OCC3CCN(C(=O)Cc4ccc(-n5cnnn5)cc4)CC3)ccc21` [Example 55, 5-[(1-{[4-(1H-Tetrazol-1-yl)phenyl]acetyl}piperidin-4-yl)methoxy]-2-benzofuran-1(3H)-one]: the 50% inhibitory concentration (IC50) is at most 200 nM.

The compound `N#Cc1cc(CCC2(C(F)F)CCN(C(=O)Cc3ccc(-n4cnnn4)cc3)CC2)ccc1F` [Example 27, 5-{2-[4-(Difluoromethyl)-1-{[4-(1H-tetrazol-1-yl)phenyl]acetyl}piperidin-4-yl]ethyl}-2-fluorobenzonitrile] displayed a 50% inhibitory concentration (IC50) of at most 500 nM.

`O=C1OCc2cc(/C=C/C3CCN(C(=O)Cc4ccc5c(c4)COC5=O)CC3)ccc21` [Example 47, 5-[(E)-2-{1-[(1-Oxo-1,3-dihydro-2-benzofuran-5-yl)acetyl]piperidin-4-}ethenyl]-2-benzofuran-1(3H)-one] returned a half-inhibitory concentration (IC50) of at most 500 nM.

Take `O=[N+]([O-])c1ccc(/C=C/C2CCN(CCc3ccc([N+](=O)[O-])cc3)CC2)cc1` [Example 2, 4-[(E)-2-(4-Nitrophenyl)ethenyl]-1-[2-(4-nitrophenyl)ethyl]piperidine]: the half-maximal inhibitory concentration (IC50) is at most 200 nM.

`N#Cc1cc(CCC2(F)CCN(C(=O)Cc3ccc(-n4cnnn4)cc3)CC2)ccc1F` [Example 14, 2-Fluoro-5-[2-(4-fluoro-1-{[4-(1H-tetrazol-1-yl)phenyl]acetyl}piperidin-4-yl)ethyl]benzonitrile] registered an IC50 of at most 500 nM.

As to `N#Cc1c(F)ccc(C#CC2(O)CCN(C(=O)Cc3ccc(-n4cnnn4)cc3)CC2)c1Cl` [Example 39, 2-Chloro-6-fluoro-3-[(4-hydroxy-1-{[4-(1H-tetrazol-1-yl)phenyl]acetyl}piperidin-4-yl)ethynyl]benzonitrile], the IC50 was at most 500 nM.

Consider `CC1Cc2cc(/C=C/C3CCN(C(=O)Cc4ccc(-n5cnnn5)cc4)CC3)ccc2C(=O)O1` (stereo not shown) [Example 79, 3-Methyl-6-[(E)-2-(1-{[4-(1H-tetrazol-1-yl)phenyl]acetyl}piperidin-4-yl)ethenyl]-3,4-dihydro-1H-isochromen-1-one], for which the IC50 was at most 200 nM.

`N#Cc1c(F)ccc(C#CC2(O)CCN(C(=O)Cc3ccc(-n4cnnn4)cc3)CC2)c1F` [Example 33, 2,6-Difluoro-3-[(4-hydroxy-1-{[4-(1H-tetrazol-1-yl)phenyl]acetyl}piperidin-4-yl)ethynyl]benzonitrile] gave a half-maximal inhibitory concentration (IC50) of at most 500 nM.

Compound `O=C1OCc2c1ccc(/C=C/C1CCN(C(=O)Cc3ccc(-n4cnnn4)cc3)CC1)c2Br` [Example 68, 4-Bromo-5-[(E)-2-(1-{[4-(1H-tetrazol-1-yl)phenyl]acetyl}piperidin-4-yl)ethenyl]-2-benzofuran-1(3H)-one] yielded an IC50 of at most 500 nM.

`N#Cc1cc(/C=C/C2CCN(C(=O)Cc3ccc4c(c3)COC4=O)CC2)ccc1F` [Example 48, 2-Fluoro-5-[(E)-2-{1-[(1-oxo-1,3-dihydro-2-benzofuran-5-yl)acetyl]piperidin-4-yl}ethenyl]benzonitrile] displayed an IC50 of at most 500 nM.

Regarding `N#Cc1c(F)ccc(CCC2(O)CCN(C(=O)Cc3ccc(-n4cnnn4)cc3)CC2)c1F` [Example 34, 2,6-Difluoro-3-[2-(4-hydroxy-1-{[4-(1H-tetrazol-1-yl)phenyl]acetyl}piperidin-4-yl)ethyl]benzonitrile], the IC50 is at most 500 nM.
